Assay results from patent publication US11999782B2, “Therapeutic agents for the treatment of diseases associated with undesired cell proliferation” (Fundació Privada Institutció Catalana de Recerca I Estudis …, priority 2009, dated 2024).

Assays:
[1] = system: GICs (glioma initiating cells) / GBM neurospheres; test: Self-renewal assay of GBM neurospheres (GICs derived from patients); assay type: cell-based, human; conditions: added with 100 pM TGFβ1; 2 μM TβRI inhibitor, anti-LIF neutralizing antibody or 0.5 pM P6; absence of EGF and FGF
Method: FIG. 1. Effect of TGFβ on the self-renewal of GIC derived from patients. (A) Representative images of PCTCs and neurospheres of GBM generated from samples of 3 different patients with GBM (GBM1, GBM2, GBM3). (B) Musashi-1 (Msi-1), Sox2, Nestin and β-actin were determined by means of RT-PCR analysis of PCTCs and neurospheres of 3 samples of human GBM. (C) 100,000 neurosphere (nsph.) or PCTC cells obtained from samples of GBM1, GBM2 and GBM3 tumors were intracranially inoculated in three Balbc nu/nu mice in each case. Magnetic resonance imaging (MRI) studies were performed on days 30-40 in each mouse. The images represent an example of mice inoculated with neurosphere or PCTC cells obtained from GBM1. The mice were weighed twice a week. The graph represents mice inoculated with cells derived from GBM1. (D and E) Neurosphere cells of the indicated GBMs were incubated in the absence of growth factors with 100 pM TGFβ1 and/or 2 μM TβRI inhibitor for 7 days and the number of newly formed neurospheres (D) and the total number of cells (E) were determined. (F) Representative images of GBM1 neurospheres treated as indicated in D and E.
FIG. 6. LIF mediates the increase of self-renewal of GIC by TGFβ. (A, B) GBM1, GBM2 and GBM3 neurosphere cells were treated with 100 pM TGFβ1, 20 ng/ml LIF and/or anti-LIF neutralizing antibody and 0.5 pM P6 in the absence of EGF and FGF and the number of newly formed neurospheres (A) or the total number of cells (B) was determined. (C) Representative images of GBM1 neurospheres treated as indicated in A and B.
The self-renewal of the neurospheres was evaluated by seeding an identical number of cells at a very low density in wells of a 96-well plate. The cells were treated, in the absence of growth factors, with the indicated compounds and the total number of new neurospheres formed after 7 days in culture was counted (Lee et al. (2008) Cancer Cell 13, 69-80; Reynolds and Weiss, (1996) Dev Biol 175, 1-13; Seaberg and van der Kooy, (2002) J Neurosci 22, 1784-1793).
It was decided to evaluate the effect of TGFβ on the capacity for self-renewal of GICs following a well described protocol based on the capacity of GICs to generate neurospheres (Reynolds and Weiss, 1996, Dev Biol. 175:1-13; Seaberg and van der Kooy, 2002, J Neurosci 22:1784-1793). The neurospheres derived from patients were disassociated into individual cells, treated with TGFβ or left untreated for 7 days in the absence of growth factors and the newly formed neurospheres and the total number of cells were counted. Following this protocol, the effect of TGFβ on the capacity for self-renewal of the GICs derived from three different patients was evaluated. […] These effects were blocked when an TGFβ I receptor inhibitor (TβRI) was added at the same time as TGFβ.
It was decided to assess whether LIF and JAK-STAT pathway mediated the increase of self-renewal of GICs by TGFβ. For this purpose, the neutralizing antibody against LIP and P6 was used to specifically block the effect of the secreted LIP on cells treated with TGFβ. The neurospheres were disassociated into individual cells and were treated with TGFβ, recombinant LIF, anti-LIF antibody and/or P6. The newly formed neurospheres and the total number of cells were counted. […] The treatment with the neutralizing antibody of LIP decreased the induction of the self-renewal of GICs by TGFβ.

[2] = system: STAT3 phosphorylation (JAK-STAT pathway); test: p-STAT3 Western blotting in GBM1 neurospheres; assay type: cell-based, human
Method: FIG. 5. TGFβ induces the LIF-JAK-STAT pathway in GEM neurospheres derived from patients. (A) The levels of p-STAT3 and STAT3 were determined by means of Western blotting of neurospheres of the sample of GBM1 treated with 20 ng/ml LIF for the indicated time periods. (B) The neurospheres of the sample of GBM1 were treated with 20 ng/ml LIF and/or 0.5 pM P6 for 15 minutes and the levels of total p-STAT3 and STAT3 were determined by means of Western blotting. (C) The neurospheres of the sample of GBM1 were treated with 100 pM TGFβ1 or the 2 pM TβRI inhibitor for 4 hours in the absence of EFG and FGF and the levels of p-STAT3, STAT3, p-Smad2, Smad2 and α-tubulin were determined by means of Western blotting. (D) the neurospheres of the sample of GBM1 were treated with 100 pM TGFβ1, 0.5 μM P6 or the blocking antibody against LIF for 4 hours in the absence of EGF and FGF and the levels of total p-STAT3 and STAT3 were determined by means of Western blotting.
Genomic DNA of U373MG was used to amplify the −634/+32 region of the human LIF promoter which was cloned into the pGL2-basic luciferase vector. The deletion constructs (−267/+32), and (−73/+32) were generated by means of digestion of the construct (−634/+32). Two point mutations were introduced in positions −183 bp and −184 bp in the construct (−267/+32) to interrupt the Smad binding element (SBE) and generate the construct (−267/+32) mutSBE. TGFβ1, TGFβ2, TGFβ3 (R&D Systems), TβRI inhibitor (SB431542, Tocris), LIF (Chemicon), the neutralizing antibodies against LIF (R&D), JAK inhibitor (tetracyclic pyridone 6 (P6) Calbiochem), the assembly of SMART siRNAs targeted to Smad2, Smad3 and Smad4 (Dharmacon), and the control siRNA siGlo (Dharmacon) were used at the indicated concentrations. The antibodies specific against p-Smad2, Smad2, p-STAT3 (p-Tyr705) and total STAT3 (Cell Signalling) and against Smad2, Smad3 and Smad4 (Hata et al., (2000) Cell 100, 229-240) were used for Western blotting.
In order to distinguish whether the LIF signaling pathway is functional in GEM neurospheres, the neurospheres were treated with recombinant LIF and the levels of phosphorylation of the downstream substrate of the LIF receptor complex, STAT3, were determined. […] Furthermore, the induction of p-STAT3 was prevented by the presence of a pharmacological JAK-specific, tetracyclic pyridone 6 (P6) (Pedranzini et al., 2006, Cancer Res, 66: 9714-9721; Thompson et al., 2002, Bioorg Med Chem Lett, 12:1219-1223) (FIG. 5B). […] It was decided to assess whether LIP was mediating the induction of p-STAT3 by TGFβ. For this purpose, a neutralizing antibody against LIF was used to specifically block the effect of secreted LIP on cells treated with TGFβ. The presence of the neutralizing antibody of LIP decreased the induction of p-STAT3 by TGFβ. Furthermore, the levels of p-STAT3 in cells treated with TGFβ were repressed by means of the treatment with P6 (FIG. 5D).

[3] = system: LIF expression in normal human neuroprogenitors; test: LIF mRNA in neurospheres of normal human neuroprogenitors; assay type: cell-based; conditions: 100 pM, 3 hours, compared with GBM neurospheres
Method: FIG. 8. Effect of TGFβ on the capacity of self-renewal of normal human neuroprogenitors. (A) Immunocytochemistry of the indicated markers was performed in human neuroprogenitor neurospheres. (B) Neurospheres of the sample of GBM1 and of human neuroprogenitors were incubated with the indicated members of the 100 pM TGFβ family for 3 hours and the mRNA levels of LIF were determined. (C, D) Neurosphere cells of normal human neuroprogenitors were incubated in the same conditions that have been described above in FIG. 1D in the presence of 100 pM TGFβ1 or 20 ng/ml LIF for 7 days and the number of newly formed neurospheres (C) and the number total of cells (D) were determined.
The U373MG and A172 cells were a generous gift from J. Rich and D. Bigner and were cultured in DMEM with 10% fetal bovine serum (FBS). The primary culture of tumor cells (PCTC) and the GBM neurospheres were generated as described (Bruna et al., (2007) Cancer Cell 11, 147-160; Gunther et al., (2008) Oncogene. May 1; 27(20):2897-909). Briefly, the samples of tumors were processed in the 30 minutes after the surgical resection. The ground pieces of the samples of human gliomas were digested with 200 U/ml collagenase I (Sigma) and 500 U/ml of DNase I (Sigma) in PBS for 2 hours at 37° C. and with constant vigorous stirring. The suspension of individual cells was filtered through a 70 μm cell filter (BD Falcon) and washed with PBS. […]
qRT-PCR was performed using Taqman probes from Applied Biosystems, according to the manufacturer's recommendations. The reactions were carried out in a ABI 7000 sequence detector (Perkin Elmer) and the results were expressed as the fold change calculated by means of the DDCt method relative to the control sample or the first quantified sample. […]
It was decided to assess whether this effect was specific to tumor cells or was also present in normal neuroprogenitor cells. […] First, it was determined if TGFβ induced LIF in normal human neuroprogenitors. […]

[4] = system: LIF expression in GBM neurospheres; test: LIF mRNA by qRT-PCR in GBM neurospheres; assay type: cell-based, human; conditions: 100 pM, 3 hours, medium without serum
Method: FIG. 3. TGFβ induces the expression of LIF in PCTC and GBM neurospheres. (A) PCTC cells of the 11 samples of the indicated GEM (GBM1-11) were treated with 100 pM TGFβ1 for 3 hours in medium without serum or left untreated, and the expression levels of LIF were determined by means of qRT-PCR. The g-actin was determined as an internal normalization control. (B) GBM neurosphere cells were treated as in A and the expression levels of LIF were determined by means of qRT-PCR as in A. (C) GBM neurospheres were incubated with 100 pM TGFβ1 and/or 2 μM TβRI inhibitor for 3 hours in medium without serum and the mRNA levels of LIF were determined by means of qRT-PCR as in A. (D) GBM1 neurospheres were incubated with 100 pM TGFβ1, TGFβ2 and TGFβ3 for 3 hours in medium without serum and the mRNA levels of LIF were determined by means of qRT-PCR as in A. (E) The levels of LIF protein secreted were determined by means of ELISA in GBM1 neurospheres after 48 hours of treatment with 100 pM TGFβ1.
The U373MG and A172 cells were a generous gift from J. Rich and D. Bigner and were cultured in DMEM with 10% fetal bovine serum (FBS). The primary culture of tumor cells (PCTC) and the GBM neurospheres were generated as described (Bruna et al., (2007) Cancer Cell 11, 147-160; Gunther et al., (2008) Oncogene. May 1; 27(20):2897-909). Briefly, the samples of tumors were processed in the 30 minutes after the surgical resection. The ground pieces of the samples of human gliomas were digested with 200 U/ml collagenase I (Sigma) and 500 U/ml of DNase I (Sigma) in PBS for 2 hours at 37° C. and with constant vigorous stirring. The suspension of individual cells was filtered through a 70 μm cell filter (BD Falcon) and washed with PBS. Finally, the cells were resuspended and subsequently cultured in DMEM with 10% FBS, for the culture of PCTCs, or in neurosphere medium in the case of the GBM neurospheres. The neurospheres of normal human neuroprogenitors were generated from human embryonic cerebral cortex tissue (12-16 weeks after the conception) collected after voluntary abortions. The samples were processed and cultured as described (Poltavtseva et al. (2002) Brain Res Dev Brain Res 134, 149-154). The neurosphere medium consists of neurobasal medium (Gibco) supplemented with B27 (Gibco), L-glutamine (Gibco), penicillin/streptomycin, and growth factors (20 ng/mL EGF and 20 ng/mL FGF-2 (Peprotech)).
qRT-PCR was performed using Taqman probes from Applied Biosystems, according to the manufacturer's recommendations. The reactions were carried out in a ABI 7000 sequence detector (Perkin Elmer) and the results were expressed as the fold change calculated by means of the DDCt method relative to the control sample or the first quantified sample. The ribosomal unit of 18S or β-actin were used as internal normalization controls.
It was decided to investigate the molecular mechanisms responsible for the effect of TGFβ on GICs. Gene responses to TGFβ in GBM cells which could be involved in the regulation of the self-renewal of GICs were investigated. In a previous work (Bruna et al., 2007), transcriptome analyses were conducted in the U373MG glioma cell line treated with TGFβ and/or a TβRI inhibitor. LIF was among the 63 gene responses to TGFβ in U373MG which were dependent on the activity of TβRI. […] A panel of PCTCs derived from 11 different human GBMs was treated with TGFβ for 3 hours and the levels of LIF mRNA were determined.

CC(C)(C)c1nc2c3ccc(F)cc3c3c(=O)[nH]ccc3c2[nH]1 [P6, tetracyclic pyridone 6]
effect on the induction of self-renewal of GICs by TGFβ (number of neurospheres, total number of cells) [1]: repressed | effect on the induction of p-STAT3 by TGFβ ([2]; 100 pM TGFβ1, 4 hours, absence of EGF and FGF, 2 pM TβRI inhibitor, 0.5 μM P6 or blocking antibody against LIF): repressed | effect on the induction of p-STAT3 by LIF ([2]; 20 ng/ml LIF and 0.5 pM P6, 15 minutes): prevented

B1: TGFβ2: TGFβ2 (R&D Systems), member of the TGFβ family (protein, UniProt P61812 303-414, looked up)
Transforming growth factor …: ALDAAYCFRNVQDNCCLRPLYIDFKRDLGWKWIHEPKGYNANFCAGACPYLWSSDTQHSRVLSLYNTINPEASASPCCVSQDLEPLTILYYIGKTPKIEQLSNMIVKSCKCS
induction of LIF mRNA in normal human neuroprogenitor neurospheres [3]: did not induce LIF | LIF transcript in neurospheres derived from patients [4]: capable of inducing LIF
